Experimental data from patent US9944600B2, “Piperidine derivatives for GPR119 agonist” (CHONG KUN DANG PHARMACEUTICAL CORP., priority 2012, dated 2018).

What was measured:
GPR 119 Receptor = molecular target: T1, GPR 119 Receptor (Mus musculus, UniProt Q7TQP3); assay: Glucose tolerance test in normal mouse (animal test of activity for the GPR 119 receptor); format: in vivo; conditions: normal male C57/6J Jms mice; for Decrease % of AUC at 10 mg/kg: oral glucose 2 g/kg, whole blood glucose AUC; for Decrease % of AUC (drop effect in blood glucose level): 10 mg/kg, oral 20% glucose 2 g/kg, whole blood glucose cAUC
T1 construct: from tissue; host or cells: whole animal: male C57/6J Jms mice (normal) or diet induced obesity C57BL/6J mice
T1 sequence (Q7TQP3 1-335): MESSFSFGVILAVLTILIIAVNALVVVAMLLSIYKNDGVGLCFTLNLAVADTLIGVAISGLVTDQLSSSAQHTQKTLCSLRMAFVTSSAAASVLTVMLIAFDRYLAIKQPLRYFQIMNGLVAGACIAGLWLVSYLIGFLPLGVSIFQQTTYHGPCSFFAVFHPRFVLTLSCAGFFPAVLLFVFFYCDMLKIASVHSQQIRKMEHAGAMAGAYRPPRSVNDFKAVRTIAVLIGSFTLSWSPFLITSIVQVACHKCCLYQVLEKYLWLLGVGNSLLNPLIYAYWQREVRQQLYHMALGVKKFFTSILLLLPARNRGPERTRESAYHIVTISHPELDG
Experimental: Male C57/6J Jms mice of 6-7 weeks of age were fasted for 16 hours before the start of glucose tolerance test. The experimental animal groups consist of: • A. a vehicle group (10% EtOH, 20% HPBCD in saline), • B. a positive control group administered with MBX-2982 (10 mg/kg), and • C. test groups administered with compound 516, 581, 586, 612, 640, 644 or etc. (10 mg/kg).
Before compound administration, that is, at 0 hour, whole blood glucose level was determined using a Glucometer (ACCU-CHEK, Roche). At 30 minutes after compound administration, whole blood glucose level was determined once again, and 20% glucose (2 g/kg/10 mL) was administered orally. Whole blood glucose level was determined at 20, 40, 60, 80, and 120 minutes after 20% glucose administration. Area under the curve (AUC) of whole blood glucose level was obtained using GraphPad Prism 5.0. The effect of glucose tolerance was adjudged with the corrected area under the curve (cAUC), on which the base value of glucose area under the curve was excluded.

human GPR119 receptor = molecular target: T2, human GPR119 receptor (Homo sapiens, UniProt Q8TDV5); assay: Activity test for human GPR119 receptor (GeneBLAzer T-Rex GPR 119 CHO-K1 DA cells, fluorescence reporter); format: cell-based; conditions: 5 hours treatment; for activity at 0.1 µM / activity at 1 µM / activity at 10 µM: read-out: % Activation
T2 construct: host or cells: GeneBLAzer T-Rex GPR 119 CHO-K1 DA cells (CHO-K1)
T2 sequence (Q8TDV5 1-335): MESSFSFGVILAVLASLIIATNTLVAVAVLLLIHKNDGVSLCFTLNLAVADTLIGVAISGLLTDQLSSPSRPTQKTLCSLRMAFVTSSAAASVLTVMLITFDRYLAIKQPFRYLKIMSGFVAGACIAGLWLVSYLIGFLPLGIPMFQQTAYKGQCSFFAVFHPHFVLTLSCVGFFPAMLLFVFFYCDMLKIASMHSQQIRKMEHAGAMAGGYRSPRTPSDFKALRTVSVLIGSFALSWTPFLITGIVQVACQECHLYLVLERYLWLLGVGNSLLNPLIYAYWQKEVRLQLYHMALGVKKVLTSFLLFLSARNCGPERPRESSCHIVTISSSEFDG
Experimental: As a human GPR119 receptor expression cell for this test, the cell line “GeneBLAzer™ T-Rex GPR 119 CHO-K1 DA cells” that is commercially available from Invitrogen, was used. The cell was incubated in the DMEM media containing 1% dialyzed fetal bovine serum etc. The cell incubator was kept at constant temperature and constant humidity of 37° C., 5% CO2.
The human GPR119 receptor expressing cell was used to this test. Each of test compounds was added to be final concentrations of 0.1, 1, 10 μM in 96 well and tested in duplicate. A fixed amount of cell was added to each well of 96 well separately, and then treated with the test compound for 5 hours. After treatment of color development agent for 2 hours, the fluorescence value was determined with plate reader. To the luminous wavelength of control well, which was not treated with the agonist sample, but in which only a vehicle (i.e., cell) was contained, the ratio of the luminous wavelength of test well, which was treated with the agonist sample, was calculated, and then converted to obtain % value.
All the results were expressed as mean±SD, and each test groups and the control group were compared using student's t-test to adjudge the effects of each test groups.

[1] = test compound conc. 0.1 μM, human GPR119 CHO-K1 reporter cells, ratio to vehicle control well
[2] = test compound conc. 1 μM, human GPR119 CHO-K1 reporter cells, ratio to vehicle control well
[3] = test compound conc. 10 μM, human GPR119 CHO-K1 reporter cells, ratio to vehicle control well

activity at 0.1 µM (human GPR119 receptor; [1]) [%]	activity at 1 µM (human GPR119 receptor; [2]) [%]	activity at 10 µM (human GPR119 receptor; [3]) [%]	maximum % activation (human GPR119 receptor; human GPR119 receptor expressing cell, test concentrations 0.1, 1, 10 μM, ratio to vehicle control well) [%]	% Activation (human GPR119 receptor; [1]) [%]	% Activation (human GPR119 receptor; [2]) [%]	% Activation (human GPR119 receptor; [3]) [%]	% Activation (human GPR119 receptor; human GPR119 receptor expressing cell, test concentrations 0.1, 1, 10 μM (concentration not given)) [%]	Compound	Decrease % of AUC at 10 mg/kg (GPR 119 Receptor) [%]	Decrease % of AUC (drop effect in blood glucose level) (GPR 119 Receptor) [%]
223	478	439						CC(C)(F)CN1CCC(COc2cnc(-c3ccc(C(=O)N4CCCC[C@@H]4C(N)=O)c(F)c3)nc2)CC1 [Compound 1037, (R)-1-(2-fluoro-4-(5-((1-(2-fluoro-2-methylpropyl)piperidin-4-yl)methoxy)pyrimidin-2-yl)benzoyl)piperidin-2-carboxamide]	42	
180	291	310						CC(C)(F)CN1CCC(COc2cnc(-c3ccc(C(=O)N4CCC[C@H]4C(N)=O)c(F)c3)cn2)CC1 [Compound 944, (S)-1-(2-fluoro-4-(5-((1-(2-fluoro-2-methylpropyl)piperidin-4-yl)methoxy)pyrazine-2-yl)benzoyl)pyrrolidine-2-carboxamide]	32	
289	248	311						CC(C)(F)CN1CCC(COc2ccc(-c3ccc(C(=O)N4CCC[C@H]4C(N)=O)c(F)c3)cn2)CC1 [Compound 658, (S)-1-(2-fluoro-4-(6-((1-(2-fluoro-2-methylpropyl)piperidin-4-yl)methoxy)pyridine-3-yl)benzoyl)pyrrolidine-2-carboxamide]	38	
213	295	294						CC(C)(F)CN1CCC(COc2ccc(-c3ccc(C(=O)N4CCC[C@H]4C(N)=O)c(F)c3)cc2)CC1 [Compound 644, (S)-1-(3-fluoro-4′-((1-(2-fluoro-2-methylpropyl)piperidin-4-yl)methoxy)biphenylcarbonyl)pyrrolidine-2-carboxamide]		
321	459	430						CC(C)(F)CN1CCC(COc2cnc(-c3ccc(C(=O)N4CCC[C@H]4C(N)=O)c(F)c3)nc2)CC1 [Compound 1032, (S)-1-(2-fluoro-4-(5-((1-(2-fluoro-2-methylpropyl)piperidin-4-yl)methoxy)pyrimidin-2-yl)benzoyl)pyrrolidine-2-carboxamide]	31	

The next lines start with the molecule.

Compound	activity at 0.1 µM (human GPR119 receptor; [1]) [%]	activity at 1 µM (human GPR119 receptor; [2]) [%]	activity at 10 µM (human GPR119 receptor; [3]) [%]	maximum % activation (human GPR119 receptor; human GPR119 receptor expressing cell, test concentrations 0.1, 1, 10 μM, ratio to vehicle control well) [%]	% Activation (human GPR119 receptor; [1]) [%]	% Activation (human GPR119 receptor; [2]) [%]	% Activation (human GPR119 receptor; [3]) [%]	% Activation (human GPR119 receptor; human GPR119 receptor expressing cell, test concentrations 0.1, 1, 10 μM (concentration not given)) [%]	Decrease % of AUC at 10 mg/kg (GPR 119 Receptor) [%]	Decrease % of AUC (drop effect in blood glucose level) (GPR 119 Receptor) [%]
CC(C)(F)CN1CCC(COc2ccc(-c3ccc(C(=O)N4CCC[C@@H](O)C4)cc3)cc2)CC1 [Compound 612, (R)-(4′-((1-(2-fluoro-2-methylpropyl)piperidin-4-yl)methoxy)biphenyl-4-yl)(3-hydroxypiperidin-1-yl)methanone]									50	50
NC(=O)[C@@H]1CCCN1C(=O)c1ccc(-c2ccc(OCC3CCN(CC4(C(F)(F)F)CCC4)CC3)nc2)cc1 [Compound 581, (S)-1-(4-(6-((1-((1-(trifluoromethyl)cyclobutyl)methyl)piperidin-4-yl)methoxy)pyridine-3-yl)benzoyl)pyrrolidine-2-carboxamide]	254	344	273						50	
CC(C)(F)CN1CCC(COc2ccc(-c3ccc(C(=O)N4CC[C@H](O)C4)c(F)c3)cc2)CC1 [Compound 640, (S)-(3-fluoro-4′-((1-(2-fluoro-2-methylpropyl)piperidin-4-yl)methoxy)biphenyl-4-yl)(3-hydroxypyrrolidine-1-yl)methanone]									52	
CCc1cnc(N2CCC(c3nc(COc4ccc(-n5cnnn5)cc4)cs3)CC2)nc1 [MBX-2982, reference compound]				200	180	206	200		24	24
CC(C)(F)CN1CCC(COc2cnc(-c3ccc(C(=O)N4CCC[C@H]4C(N)=O)cc3)cn2)CC1 [Compound 950, (S)-1-(4-(5-((1-(2-fluoro-2-methylpropyl)piperidin-4-yl)methoxy)pyrazine-2-yl)benzoyl)pyrrolidine-2-carboxamide]	191	232	307						39	
NC(=O)[C@@H]1CCCN1C(=O)c1ccc(-c2ccc(OCC3CCN(CC4(C(F)(F)F)CC4)CC3)nc2)cc1 [Compound 586, (S)-1-(4-(6-((1-((1-(trifluoromethyl)cyclopropyl)methyl)piperidin-4-yl)methoxy)pyridine-3-yl)benzoyl)pyrrolidine-2-carboxamide]	213	310	379						34	
CN(C)C(=O)c1ccc(-c2ccc(OCC3CCN(CC(C)(C)F)CC3)cc2)cc1 [Compound 516, 4′-((1-(2-fluoro-2-methylpropyl)piperidin-4-yl)methoxy)-N,N-dimethylbiphenyl-4-carboxamide]	185	243	289						43	
O=C(c1ccc(-c2cnc(OCC3CCN(CC4(C(F)(F)F)CCC4)CC3)cn2)cc1F)N1CCC[C@@H](O)C1 [Compound 1013, (R)-(2-fluoro-4-(5-((1-((1-(trifluoromethyl)cyclobutyl)methyl)piperidin-4-yl)methoxy)pyrazine-2-yl)phenyl)(3-hydroxypiperidin-1-yl)methanone]	410	490	426					490		
CCC(F)(CC)CN1CCC(COc2cnc(-c3ccc(C(=O)N4CCCC[C@@H]4C(N)=O)c(F)c3)nc2)CC1 [Compound 1055, (R)-1-(4-(5-((1-(2-ethyl-2-fluorobutyl)piperidin-4-yl)methoxy)pyrimidin-2-yl)-2-fluorobenzoyl)piperidine-2-carboxamide]	407	474	408							
CC(C)(F)CN1CCC(COc2ccc(-c3ccc(C(=O)N4CC[C@@H](O)C4)c(F)c3)nc2)CC1 [Compound 768, (R)-(2-fluoro-4-(5-((1-(2-fluoro-2-methylpropyl)piperidin-4-yl)methoxy)pyridine-2-yl)phenyl)(3-hydroxypyrrolidine-1-yl)methanone]	162	260	313						40	
